# Assay results from ChEMBL document CHEMBL2434952, “Morphological changes of some pathogenic microbial strains induced by novel thiadiazole derivatives” (2013).
# Active and inactive are the calls of the source. The calls are words filed in the database; no cut-off is given here.
# How the values were obtained:
# [1] = test system: Bacillus cereus; experiment: Antibacterial activity against Bacillus cereus assessed as growth inhibition measured after 24 to 48 hrs by agar disk diffusion method in presence of 24.4 Gy gamma-irradiation; type: functional
# [2] = test system: Bacillus cereus; experiment: Antibacterial activity against Bacillus cereus assessed as growth inhibition measured after 24 to 48 hrs by agar disk diffusion method in absence of 24.4 Gy gamma-irradiation; type: functional
# [3] = test system: Staphylococcus epidermidis; experiment: Antibacterial activity against Staphylococcus epidermidis assessed as growth inhibition measured after 24 to 48 hrs by agar disk diffusion method in presence of 24.4 Gy gamma-irradiation; type: functional
# [4] = test system: Staphylococcus epidermidis; experiment: Antibacterial activity against Staphylococcus epidermidis assessed as growth inhibition measured after 24 to 48 hrs by agar disk diffusion method in absence of 24.4 Gy gamma-irradiation; type: functional
# [5] = test system: Staphylococcus aureus; experiment: Antibacterial activity against Staphylococcus aureus assessed as growth inhibition measured after 24 to 48 hrs by agar disk diffusion method in presence of 24.4 Gy gamma-irradiation; type: functional
# [6] = test system: Staphylococcus aureus; experiment: Antibacterial activity against Staphylococcus aureus assessed as growth inhibition measured after 24 to 48 hrs by agar disk diffusion method in absence of 24.4 Gy gamma-irradiation; type: functional
# [7] = test system: Bacillus cereus; experiment: Antibacterial activity against Bacillus cereus assessed as growth inhibition measured after 24 to 48 hrs by agar disk diffusion method; type: functional
# [8] = test system: Staphylococcus epidermidis; experiment: Antibacterial activity against Staphylococcus epidermidis assessed as growth inhibition measured after 24 to 48 hrs by agar disk diffusion method; type: functional
# [9] = test system: Staphylococcus aureus; experiment: Antibacterial activity against Staphylococcus aureus assessed as growth inhibition measured after 24 to 48 hrs by agar disk diffusion method; type: functional
# [10] = test system: Klebsiella pneumoniae; experiment: Antibacterial activity against Klebsiella pneumoniae assessed as growth inhibition measured after 24 to 48 hrs by agar disk diffusion method; type: functional, organism-based
# [11] = test system: Pseudomonas aeruginosa; experiment: Antibacterial activity against Pseudomonas aeruginosa assessed as growth inhibition measured after 24 to 48 hrs by agar disk diffusion method; type: functional, organism-based
# [12] = test system: Candida albicans; experiment: Antifungal activity against Candida albicans assessed as growth inhibition measured after 24 to 48 hrs by agar disk diffusion method; type: functional, organism-based
# [13] = test system: Bacillus cereus; experiment: Antibacterial activity against Bacillus cereus assessed as aggregation of cellular material at poles at MIC by scanning electron microscopic analysis; type: functional, organism-based
# [14] = test system: Bacillus cereus; experiment: Antibacterial activity against Bacillus cereus assessed as septum disappearance at MIC by scanning electron microscopic analysis; type: functional, organism-based
# [15] = test system: Bacillus cereus; experiment: Antibacterial activity against Bacillus cereus assessed as shortening of cell surface at MIC by scanning electron microscopic analysis; type: functional, organism-based
# [16] = test system: Bacillus cereus; experiment: Antibacterial activity against Bacillus cereus assessed as elongation of cell surface at MIC by scanning electron microscopic analysis; type: functional, organism-based
# [17] = test system: Staphylococcus aureus; experiment: Antibacterial activity against Staphylococcus aureus assessed as elongation of cell surface at MIC by scanning electron microscopic analysis in presence of 24.4 Gy gamma-irradiation; type: functional, organism-based
# [18] = test system: Staphylococcus aureus; experiment: Antibacterial activity against Staphylococcus aureus assessed as septum disappearance at MIC by scanning electron microscopic analysis; type: functional, organism-based
# [19] = test system: Staphylococcus aureus; experiment: Antibacterial activity against Staphylococcus aureus assessed as deformity of cell surface at MIC by scanning electron microscopic analysis in presence of 24.4 Gy gamma-irradiation; type: functional, organism-based
# [20] = test system: Bacillus cereus; experiment: Antibacterial activity against Bacillus cereus assessed as growth inhibition measured for 24 hrs by agar streak dilution method in absence of 24.4 Gy gamma-irradiation; type: functional; conditions: light or radiation study
# [21] = test system: Staphylococcus aureus; experiment: Antibacterial activity against Staphylococcus aureus assessed as growth inhibition measured for 24 hrs by agar streak dilution method in presence of 24.4 Gy gamma-irradiation; type: functional; conditions: light or radiation study
# [22] = test system: Staphylococcus aureus; experiment: Antibacterial activity against Staphylococcus aureus assessed as growth inhibition measured for 24 hrs by agar streak dilution method in absence of 24.4 Gy gamma-irradiation; type: functional; conditions: light or radiation study
# [23] = test system: Staphylococcus aureus; experiment: Antibacterial activity against Staphylococcus aureus assessed as appearance of projected cellular material and membrane blebbing at MIC by scanning electron microscopic analysis; type: functional, organism-based
# [24] = test system: Bacillus cereus; experiment: Antibacterial activity against Bacillus cereus assessed as growth inhibition at 30 ug/disk measured after 24 to 48 hrs by agar disk diffusion method in presence of 24.4 Gy gamma-irradiation; type: functional; conditions: light or radiation study, read-out: IZ
# [25] = test system: Bacillus cereus; experiment: Antibacterial activity against Bacillus cereus assessed as growth inhibition at 30 ug/disk measured after 24 to 48 hrs by agar disk diffusion method in absence of 24.4 Gy gamma-irradiation; type: functional; conditions: light or radiation study, read-out: IZ
# [26] = test system: Staphylococcus epidermidis; experiment: Antibacterial activity against Staphylococcus epidermidis assessed as growth inhibition at 30 ug/disk measured after 24 to 48 hrs by agar disk diffusion method in presence of 24.4 Gy gamma-irradiation; type: functional; conditions: light or radiation study, read-out: IZ
# [27] = test system: Staphylococcus epidermidis; experiment: Antibacterial activity against Staphylococcus epidermidis assessed as growth inhibition at 30 ug/disk measured after 24 to 48 hrs by agar disk diffusion method in absence of 24.4 Gy gamma-irradiation; type: functional; conditions: light or radiation study, read-out: IZ
# [28] = test system: Staphylococcus aureus; experiment: Antibacterial activity against Staphylococcus aureus assessed as growth inhibition at 30 ug/disk measured after 24 to 48 hrs by agar disk diffusion method in presence of 24.4 Gy gamma-irradiation; type: functional; conditions: light or radiation study, read-out: IZ
# [29] = test system: Staphylococcus aureus; experiment: Antibacterial activity against Staphylococcus aureus assessed as growth inhibition at 30 ug/disk measured after 24 to 48 hrs by agar disk diffusion method in absence of 24.4 Gy gamma-irradiation; type: functional; conditions: light or radiation study, read-out: IZ
# [30] = test system: Bacillus cereus; experiment: Antibacterial activity against Bacillus cereus assessed as growth inhibition at 30 ug/disk measured after 24 to 48 hrs by agar disk diffusion method; type: functional; conditions: read-out: IZ
# [31] = test system: Staphylococcus epidermidis; experiment: Antibacterial activity against Staphylococcus epidermidis assessed as growth inhibition at 30 ug/disk measured after 24 to 48 hrs by agar disk diffusion method; type: functional; conditions: read-out: IZ
# [32] = test system: Staphylococcus aureus; experiment: Antibacterial activity against Staphylococcus aureus assessed as growth inhibition at 30 ug/disk measured after 24 to 48 hrs by agar disk diffusion method; type: functional; conditions: read-out: IZ
# [33] = test system: Klebsiella pneumoniae; experiment: Antibacterial activity against Klebsiella pneumoniae assessed as growth inhibition at 30 ug/disk measured after 24 to 48 hrs by agar disk diffusion method; type: functional; conditions: read-out: IZ
# [34] = test system: Pseudomonas aeruginosa; experiment: Antibacterial activity against Pseudomonas aeruginosa assessed as growth inhibition at 30 ug/disk measured after 24 to 48 hrs by agar disk diffusion method; type: functional; conditions: read-out: IZ
# [35] = test system: Candida albicans; experiment: Antifungal activity against Candida albicans assessed as growth inhibition at 30 ug/disk measured after 24 to 48 hrs by agar disk diffusion method; type: functional, organism-based
Compound,inhibition zone (IZ) [1] [mm],inhibition zone (IZ) [2] [mm],inhibition zone (IZ) [3] [mm],inhibition zone (IZ) [4] [mm],inhibition zone (IZ) [5] [mm],inhibition zone (IZ) [6] [mm],inhibition zone (IZ) [7],inhibition zone (IZ) [8],inhibition zone (IZ) [9],growth inhibition (GI) [10],growth inhibition (GI) [11],growth inhibition (GI) [12],other results
NS(=O)(=O)c1ccc(NC(=S)Nc2n[nH]c(=S)s2)cc1,10,7,10,6,10,10,7 mm,inactive,9 mm,inactive,inactive,inactive,
O=C(Nc1ccccc1)Nc1nnc(S)s1,9,7,10,7,10,7,7 mm,9 mm,10 mm,inactive,inactive,inactive,
O=C(Nc1ccccc1)Sc1nnc(N(C(=O)Nc2ccccc2)C(=O)Nc2ccccc2)s1,9,7,12,8,7,7,7 mm,7 mm,15 mm,inactive,inactive,inactive,
N#Cc1c(-c2ccccc2)cn(-c2n[nH]c(=S)s2)c1N,25,25,25,12,19,20,20 mm,17 mm,25 mm,inactive,inactive,inactive,Activity [13]: Active; Activity [14]: Active; Activity [15]: Active; Activity [16]: Active; Activity [17]: Active; Activity [18]: Active; Activity [19]: Active; MIC [20]: 250 µg/mL; MIC [21]: 250 µg/mL; MIC [22]: 125 µg/mL; Activity [23]: Active
O=C(CNc1n[nH]c(=S)s1)c1ccccc1,15,15,20,12,20,20,18 mm,15 mm,20 mm,inactive,inactive,inactive,
CC(=O)N(C(C)=O)c1n[nH]c(=S)s1,20,11,15,11,17,20,20 mm,13 mm,20 mm,inactive,inactive,inactive,
O=CN(C=O)c1n[nH]c(=S)s1,20,13,13,13,16,20,22 mm,20 mm,20 mm,inactive,inactive,inactive,
NCC[C@H](O)C(=O)N[C@@H]1C[C@H](N)[C@@H](O[C@H]2O[C@H](CN)[C@@H](O)[C@H](O)[C@H]2O)[C@H](O)[C@H]1O[C@H]1O[C@H](CO)[C@@H](O)[C@H](N)[C@H]1O [AMIKACIN],,,,,,,,,,,,,zone of inhibition at 30 µg/disc [24]: 20 mm; zone of inhibition at 30 µg/disc [25]: 20 mm; zone of inhibition at 30 µg/disc [26]: 25 mm; zone of inhibition at 30 µg/disc [27]: 24 mm; zone of inhibition at 30 µg/disc [28]: 17 mm; zone of inhibition at 30 µg/disc [29]: 20 mm; zone of inhibition at 30 µg/disc [30]: 20 mm; zone of inhibition at 30 µg/disc [31]: 25 mm; zone of inhibition at 30 µg/disc [32]: 20 mm; zone of inhibition at 30 µg/disc [33]: 11 mm; zone of inhibition at 30 µg/disc [34]: 15 mm
O=C1CSC(Nc2n[nH]c(=S)s2)=N1,11,11,7,7,15,12,9 mm,7 mm,10 mm,inactive,inactive,inactive,
S=c1[nH]nc(/N=C/c2ccccc2Cl)s1,16,20,13,13,16,16,22 mm,12 mm,20 mm,inactive,inactive,inactive,
NYSTATIN,,,,,,,,,,,,,inhibition zone (IZ) [35]: 7 mm
O=C(CCl)Nc1n[nH]c(=S)s1,,,,,,,inactive,inactive,inactive,inactive,inactive,inactive,
